Legend:
[1] = test system: peripheral blood mononuclear cells from Mtb-immune (PPD skin-test positive) subjects; assay: Lymphoproliferation assay ([3H]thymidine, stimulation index) with PBMC of Mtb-immune subjects; format: cell-based, human; conditions: for Phil % responders (n = 38) / Phil # responders (n = 38): Philippines cohort; for Phil % responders (n = 38) / Phil # responders (n = 38) / Prov % responders (n = 22) / Prov # responders (n = 22): response positive if SI≧2.0; for Phil # responders (n = 38) / Prov # responders (n = 22): peptide 1 and 10 μg/ml; for Prov % responders (n = 22) / Prov # responders (n = 22): Providence cohort; for number of Mtb-immune responders (proliferative response SI≧2.0): all Mtb-immune subjects
[2] = test system: peripheral blood mononuclear cells from Mtb-naive (PPD skin-test negative) subjects; assay: Lymphoproliferation assay ([3H]thymidine, stimulation index) with PBMC of Mtb-naive subjects; format: cell-based, human; conditions: n=19

Row | Substance | Phil % responders (n = 38) [1] [%] | Phil # responders (n = 38) [1] | Prov % responders (n = 22) [1] [%] | Prov # responders (n = 22) [1] | number of Mtb-immune responders (proliferative response SI≧2.0) ([1]; n=40) | further results
1 | RSLFPEFSELFAAFPSFAGL (listed as Mycobacterium tuberculosis) [16-1, 16 kDa Mtb protein, amino acids 11-30] | 10 | 4 | 5 | 2 | six | –
2 | VSETISGPRLYGEMTMQGTR (listed as Mycobacterium tuberculosis) [14-6, 14 kDa Mtb protein, amino acids 80-99] | 3 | 1 | 3 | 1 | – | –
3 | SVVMPVGGQSSFYSDW (listed as Mycobacterium tuberculosis) [32-3, 32 kDa Mtb protein, amino acids 67-82] | – | – | – | – | only a few | –
4 | LAIYHPQQFVYAGAMSGLLD (listed as Mycobacterium tuberculosis) [32-7, 32 kDa Mtb protein, amino acids 135-154] | – | – | – | – | six | –
5 | KFLEGFVRTSNIKFQD (listed as Mycobacterium tuberculosis) [32-9, 32 kDa Mtb protein, amino acids 227-242] | – | – | – | – | six | –
6 | MLGNAPSVVPNTTLGMHC (listed as Mycobacterium tuberculosis) [14-1, 14 kDa Mtb protein, amino acids 1-18] | 5 | 2 | 5 | 2 | – | –
7 | QAVMLGTGTPNRA (listed as Mycobacterium tuberculosis) [14-4, 14 kDa Mtb protein, amino acids 56-68] | 8 | 3 | 3 | 1 | – | –
8 | AELPGVDPDKDVD (listed as Mycobacterium tuberculosis) [16-3, 16 kDa Mtb protein, amino acids 54-66] | – | – | – | – | one | –
9 | FAYGSFVRTVSLPVGA (listed as Mycobacterium tuberculosis) [16-5, 16 kDa Mtb protein, amino acids 92-107] | – | – | – | – | six | % responders among Mtb-immune subjects ([1]; n=40): 28%; Mtb-naive controls that responded [2]: none
10 | LKLGLVEFGGVAKLNAEVMS (listed as Mycobacterium tuberculosis) [14-3, 14 kDa Mtb protein, amino acids 30-49] | 8 | 3 | 10 | 4 | six | –
11 | TT: tetanus toxoid, control antigen (Connaught) [reference compound] | – | – | – | – | – | Mtb-immune subjects showing a proliferative response in vitro ([1]; control antigen 5 μg/ml, n=40): All but six; stimulation index (SI) range ([1]; control antigen 5 μg/ml, range over responding subjects): 2-182; Mtb-naive controls not showing a proliferative response ([2]; control antigen 5 μg/ml): one
12 | phytohemagglutinin [reference compound] | – | – | – | – | – | response to mitogen in words ([1]; 1 μg/ml, the 41 subjects who were tested (both groups)): robust response
13 | VGLSMAASSALTLAIYHPQQ (listed as Mycobacterium tuberculosis) [32-6, 32 kDa Mtb protein, stop at amino acid 142] | – | – | – | – | six | –
14 | PLLNVGKLIANNTRVWVY (listed as Mycobacterium tuberculosis) [32-8, 32 kDa Mtb protein, amino acids 193-210] | – | – | – | – | – | % responders among Mtb-immune subjects ([1]; n=40): 25%; Mtb-naive controls that responded [2]: none
15 | LAIGGAATGIAAVLTDGNPP [19-3] | – | – | – | – | six | –
16 | QNVTGSVVCTTAAGNVN [19-2] | – | – | – | – | six | –
17 | CEVWSNVSETISGPRLYGEM (listed as Mycobacterium tuberculosis) [14-5, 14 kDa Mtb protein, amino acids 74-93] | 5 | 2 | 5 | 2 | – | –
18 | GSFGSAPSNGWLKLGLVEFG (listed as Mycobacterium tuberculosis) [14-2, 14 kDa Mtb protein, amino acids 19-38] | 15 | 6 | 8 | 3 | six | –
19 | RHVKPTGSAVVGLSMAASSA [32-5, 32 kDa Mtb protein, amino acids 113-132] | – | – | – | – | six | –
20 | FSELFAAFPSFAGLRPTFDT [16-2, 16 kDa Mtb protein, amino acids 17-36] | 10 | 4 | 3 | 1 | – | –
